# From ChEMBL document CHEMBL6096719, “Kidney Targeting Smart Antibiotic Discovery: Multimechanism Pleuromutilins for Pyelonephritis Therapy” (J Med Chem, 2025)
# Calls of active or inactive are those of the source. The calls are words filed in the database; no cut-off is given here.
# Experiments:
# Staphylococcus aureus [1] = assay: Antibacterial activity against Staphylococcus aureus ATCC 29213 assessed as inhibition of bacterial growth incubated for 24 hrs by broth microdilution method; type: functional
# [2] = system: Staphylococcus epidermidis; assay: Antibacterial activity against methicillin-resistant Staphylococcus epidermidis ATCC 51625 assessed as inhibition of bacterial growth incubated for 24 hrs by broth microdilution method; type: functional
# Salmonella enterica = assay: Antibacterial activity against Salmonella enterica ATCC 14028 assessed as inhibition of bacterial growth incubated for 24 hrs by broth microdilution method; type: functional
# Escherichia coli [3] = assay: Antibacterial activity against Escherichia coli ATCC 25922 assessed as inhibition of bacterial growth incubated for 24 hrs by broth microdilution method; type: functional
# Staphylococcus aureus [4] = assay: Antibacterial activity against methicillin-resistant Staphylococcus aureus 575 assessed as inhibition of bacterial growth incubated for 24 hrs by broth microdilution method; type: functional
# Staphylococcus aureus [5] = assay: Antibacterial activity against methicillin-resistant Staphylococcus aureus 206 assessed as inhibition of bacterial growth incubated for 24 hrs by broth microdilution method; type: functional
# Klebsiella pneumoniae = assay: Antibacterial activity against multidrug-resistant Klebsiella pneumoniae 893 assessed as inhibition of bacterial growth incubated for 24 hrs by broth microdilution method; type: functional
# [6] = Cytotoxicity against human A549 cells assessed as reduction in cell viability incubated for 24 hrs by CCK8 assay; type: toxicity, cell-based
# Mesomycoplasma hyorhinis = assay: Anti-mycoplasma activity against Mycoplasma hyorhinis BTS-7 NCTC10130 assessed as inhibition of bacterial growth incubated for 3 to 5 days by broth microdilution method; type: functional; details: time 3-5 day
# Chlamydia pneumoniae = assay: Anti-mycoplasma activity against Chlamydophila pneumoniae TW183 VR-2282 assessed as inhibition of bacterial growth incubated for 3 to 5 days by broth microdilution method; type: functional; details: time 3-5 day
# Mycoplasma genitalium = assay: Anti-mycoplasma activity against Mycoplasma genitalium G37 ATCC33530 assessed as inhibition of bacterial growth incubated for 7 to 14 days by broth microdilution method; type: functional; details: Mycoplasmoides genitalium, time 7-14 day
# Staphylococcus aureus [7] = assay: Antibacterial activity against methicillin-resistant Staphylococcus aureus ATCC33591 assessed as post-antibiotic effect at 0.25 ug/ml incubated for 1 hr followed by washing and incubation in MHB medium for 10 hrs and later cultured on agar plate for overnight; type: functional; details: dose 0.25 µg/ml
# Escherichia coli [8] = assay: Antibiofilm activity against Escherichia coli ATCC25922 assessed as eradication of preformed biofilms incubated for 24 hrs with preformed biofilms by crystal violet staining based analysis; type: functional, organism-based; details: dose 0.125-0.5 µg/ml
# Escherichia coli [9] = assay: Antibiofilm activity against Escherichia coli ATCC25922 assessed as eradication of biofilms at 0.5 ug/ml incubated for 4 hrs by field emission scanning electron microscopy; type: functional, organism-based; details: dose 0.5 µg/ml
# Cell membrane [10] = assay: Disruption of cell membrane in methicillin-resistant Staphylococcus aureus ATCC33591 assessed as disrupted, furrowed, crumpled cell envelope at 0.125 to 0.5 ug/ml incubated for 2 hrs by propidium iodide staining based confocal laser scanning microscopy; type: subcellular; details: dose 0.125-0.5 µg/ml
# Cell membrane [11] = assay: Disruption of cell membrane in Escherichia coli ATCC25922 assessed as disrupted, furrowed, crumpled cell envelope at 0.125 to 0.5 ug/ml incubated for 2 hrs by propidium iodide staining based confocal laser scanning microscopy; type: subcellular; details: dose 0.125-0.5 µg/ml
# Cell membrane [12] = assay: Disruption of cell membrane in Escherichia coli ATCC25922 assessed as induction of cell death by measuring increase in propidium iodide fluorescence intensity at 0.5 ug/ml incubated for 2 hrs by bright field microscopy; type: subcellular; details: dose 0.5 µg/ml
# Cell membrane [13] = assay: Disruption of cell membrane in Escherichia coli ATCC25922 assessed as induction of cell death by measuring increase in propidium iodide fluorescence intensity at 0.5 ug/ml incubated for 2 hrs by fluorescence field microscopy; type: subcellular; details: dose 0.5 µg/ml
# Cell membrane [14] = assay: Disruption of cell membrane in methicillin-resistant Staphylococcus aureus ATCC33591 assessed as decrease in intracellular pH at 0.125 ug/ml incubated for 30 mins by cFDA-SE probe based fluorescence analysis; details: dose 0.125 µg/ml
# Cell membrane [15] = assay: Disruption of cell membrane in Escherichia coli ATCC25922 assessed as dissipation of membrane potential at 0.125 to 0.5 ug/ml incubated for 30 mins by DiBAC4(3) probe based fluorescence spectrophotometry; details: dose 0.125-0.5 µg/ml
# Cell membrane [16] = assay: Disruption of cell membrane in methicillin-resistant Staphylococcus aureus ATCC33591 assessed as leakage of bacterial cell contents by measuring increase in conductivity of bacterial solution at MIC measured for 6 hrs by conductivity meter analysis
# Cell membrane [17] = assay: Disruption of cell membrane in Escherichia coli ATCC25922 assessed as leakage of bacterial cell contents by measuring increase in conductivity of bacterial solution at MIC measured for 6 hrs by conductivity meter analysis
# Staphylococcus aureus [18] = assay: Antibacterial activity against methicillin-resistant Staphylococcus aureus ATCC33591 infected in systemic intraperitoneal infection Kunming mouse model assessed as increase in animal's survival rate at 5 to 20 mg/kg, ip treated at 1 hr post-infection and measured for 7 days; type: functional, organism-based; details: dose 5-20 mg/kg, time 7.0 day
# Staphylococcus aureus [19] = assay: Antibacterial activity against methicillin-resistant Staphylococcus aureus ATCC33591 infected in systemic intraperitoneal infection Kunming mouse model assessed as decrease in bacterial colonies in lungs administered intraperitoneally at 1 hr post-infection and measured after 7 days; type: functional, organism-based; details: dose 5-20 mg/kg, route ip, time 7.0 day
# [20] = Toxicity against methicillin-resistant Staphylococcus aureus ATCC33591 infected in systemic intraperitoneal infection Kunming mouse model assessed as mild liver damage at 20 mg/kg, ip treated at 1 hr post-infection and measured after 7 days by Hematoxylin-Eosin staining based analysis; type: organism-based; details: in vivo, 168 h, time 7 day
# [21] = molecular target: Solute carrier family 22 member 1 (Homo sapiens, UniProt O15245); assay: Substrate activity at human OCT1 transfected in HEK293 cells assessed as increase in intracellular drug content at 100 uM measured after 5 mins; type: ADME, cell-based; details: hek293, 5 min
# Sequence of Solute carrier family 22 member 1 (O15245 whole entry): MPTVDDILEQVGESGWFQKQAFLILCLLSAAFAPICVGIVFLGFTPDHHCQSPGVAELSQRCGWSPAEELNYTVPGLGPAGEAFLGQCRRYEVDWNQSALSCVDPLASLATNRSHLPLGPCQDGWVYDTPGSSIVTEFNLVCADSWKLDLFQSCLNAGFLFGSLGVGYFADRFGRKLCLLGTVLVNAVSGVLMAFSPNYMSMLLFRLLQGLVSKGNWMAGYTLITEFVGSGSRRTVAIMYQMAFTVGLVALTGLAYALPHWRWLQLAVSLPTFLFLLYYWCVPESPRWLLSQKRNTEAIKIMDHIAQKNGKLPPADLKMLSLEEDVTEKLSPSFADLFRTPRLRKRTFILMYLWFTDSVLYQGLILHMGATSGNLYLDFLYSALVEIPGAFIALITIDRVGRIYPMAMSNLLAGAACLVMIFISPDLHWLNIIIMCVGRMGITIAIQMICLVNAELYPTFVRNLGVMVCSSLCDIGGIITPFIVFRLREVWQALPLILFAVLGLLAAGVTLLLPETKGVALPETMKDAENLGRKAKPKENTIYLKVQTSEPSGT
# [22] = Tmax in Sprague-Dawley rat at 5 mg/kg, iv; type: ADME, organism-based; details: in vivo
# [23] = AUC (0 to 24 hrs) in Sprague-Dawley rat at 5 mg/kg, iv; type: ADME, organism-based; details: in vivo
# [24] = Observed MRT (0 to infinity) in Sprague-Dawley rat at 5 mg/kg, iv; type: ADME, organism-based; details: in vivo
# [25] = Observed apparent volume of distribution in Sprague-Dawley rat at 5 mg/kg, iv; type: ADME, organism-based; details: in vivo, read-out: Vz
# [26] = Cmax in Sprague-Dawley rat at 10 mg/kg, po; type: ADME, organism-based; details: in vivo
# [27] = AUC (0 to 24 hrs) in Sprague-Dawley rat at 10 mg/kg, po; type: ADME, organism-based; details: in vivo
# [28] = Observed AUC (0 to infinity) in Sprague-Dawley rat at 10 mg/kg, po; type: ADME, organism-based; details: in vivo
# [29] = Observed apparent volume of distribution during terminal phase in Sprague-Dawley rat at 10 mg/kg, po; type: ADME, organism-based; details: in vivo, read-out: Vz/F_obs
# [30] = Drug uptake in Sprague-Dawley rat kidney at 5 mg/kg, iv measured for 6 hrs by LC-MS/MS analysis; type: ADME, organism-based; details: in vivo
# Escherichia coli [31] = assay: Antibacterial activity against Escherichia coli ATCC25922 infected in pyelonephritis C57BL/6 mouse model assessed as saturated bacterial clearance at >=5 mg/kg, iv qd for 3 days administered at 2 days post-infection; type: functional, organism-based; details: time 3.0 day
smiles,measurement,setting,value
C=C[C@]1(C)C[C@@H](OC(=O)CSc2nc3cc[n+](Cc4ccc(C)cc4)cc3[nH]2)[C@]2(C)[C@H](C)CC[C@]3(CCC(=O)[C@H]32)[C@@H](C)[C@@H]1O.[Br-],MIC,Staphylococcus aureus [1],< 1 µg/mL
same,MIC,[2],< 1 µg/mL
same,MIC,Salmonella enterica,< 1 µg/mL
same,MIC,Escherichia coli [3],< 1 µg/mL
same,MIC,Staphylococcus aureus [4],1 µg/mL
same,MIC,Staphylococcus aureus [5],1 µg/mL
same,MIC,Klebsiella pneumoniae,2 µg/mL
same,CC50 at 24 h,[6],> 100 µM
same,MIC,Mesomycoplasma hyorhinis,< 0.04 µg/mL
same,MIC,Chlamydia pneumoniae,< 0.04 µg/mL
same,MIC,Mycoplasma genitalium,< 0.04 µg/mL
same,PAE,Staphylococcus aureus [7],1.53 h
same,Activity,Escherichia coli [8],Dose-dependent-effect
same,Activity,Escherichia coli [9],Active; Almost Complete Eradication Of Bacteria Observed
same,Activity,Cell membrane [10],Active
same,Activity,Cell membrane [11],Active
same,Activity,Cell membrane [12],Active
same,Activity,Cell membrane [13],Active
same,Activity,Cell membrane [14],Active
same,Activity,Cell membrane [15],Active
same,Activity,Cell membrane [16],Active
same,Activity,Cell membrane [17],Active
same,Activity,Staphylococcus aureus [18],Active; Superior Efficacy Over Valnemulin Observed
same,Activity,Staphylococcus aureus [19],Active; Superior Efficacy Compared To Valnemulin Observed
same,Activity,[20],Toxic
same,Activity,[21],Active
same,Tmax,[22],1.8 min
same,AUC(0-t),[23],16200 ng·h/mL
same,MRT inf,[24],68.4 min
same,Vd,[25],0.511 L/kg
same,Cmax,[26],6210 ng/mL
same,AUC(0-t),[27],14600 ng·h/mL
same,AUC(0-inf),[28],15800 ng·h/mL
same,Vd/F,[29],1.43 L/kg
same,Drug uptake,[30],Active
same,Activity,Escherichia coli [31],Active
